What was measured:
Type in all cases: in vivo
[1] = system: spring barley, HORVS Montoya; assay: Tank-mix; post-emergence: crop damage by herbicide with/without safener mefenpyr-diethyl; conditions: 21 DAT
How it was run: (§1)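 Visual percent crop damage (0–100 relative to untreated plants) assessed 1–3 weeks post-application. Plants in sandy loam were sprayed at the 1–3-leaf stage with herbicide with or without safener at several rates, water volume 300 l/ha.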

[2] = system: spring wheat, TRZAS Triso; assay: as above; conditions: 21 DAT
How it was run: as §1

[3] = system: spring barley, HORVS Montoya; assay: Treatment 1 day before: safener applied one day before herbicide, crop damage; conditions: 21 DAT
Text: (§2) Seeds of crops (spring wheat, TRZAS; spring barley, HORVS; maize, ZEAMA) were placed in sandy loam soil in pots of a diameter of 7-8 cm, covered with soil, and cultivated in a greenhouse under good growth conditions until plants were at the 1-3 leaf stage (BBCH 11-13). For split safener and herbicide treatment, first the safener was applied followed by the herbicide treatment on the following day. The safener and herbicides were formulated as WP and sprayed onto the green parts of the plants as an aqueous suspension at an equivalent water application rate of 300 l/ha, with addition of wetting agent and adjuvants (e.g. Mero, 1.5 l/ha; ammonium sulphate, 2 kg/ha). An equivalent set of plants was treated with the herbicides but without the prior safener treatment.
(§3) After application, the test plants were kept in the greenhouse under good growth conditions. 10 and 21 days after treatment (DAT) with the herbicide, % crop damage observed on the treated plants was scored visually in comparison to control plants that had not received any safener or herbicide treatment.

[4] = system: spring wheat, TRZAS Triso; assay: as above; conditions: 21 DAT; for HER effect + SAF / Reduction [%] / Reduction [Difference]: mefenpyr-diethyl 50 g a.i./ha 1 day before
Text: as §2, §3

[5] = system: spring barley, HORVS Montoya; assay: Seed treatment with safener; post-emergence herbicide, crop damage; conditions: 21 DAT; for HER effect + SAF / Reduction [%] / Reduction [Difference]: mefenpyr-diethyl 0.5 g a.i./kg seed
How it was run: (§4)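 Crop injury was rated visually in % at 10 and 21 days after post-emergence spraying at the 2-leaf stage. The herbicide was a WP in 300 l/ha water plus 1 l/ha MERO. Plants grew from seed either safener-coated at stated g a.i./kg rates via a milk-diluted slurry, or untreated.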

[6] = system: spring wheat, TRZAS Triso; assay: as above; conditions: 21 DAT; for HER effect + SAF [%] (crop damage) / Reduction [%] / Reduction [Difference]: mefenpyr-diethyl 0.5 g a.i./kg seed; for HER effect [%] (crop damage, herbicide without safener): no safener
How it was run: as §4

[7] = system: spring barley, HORVS Montoya; assay: Seed treatment with safener; pre-emergence herbicide, crop damage; conditions: for HER effect + SAF / Reduction [%] / Reduction [Difference]: mefenpyr-diethyl 0.25 g a.i./kg seed
Method: (§5) For the safener seed treatment, sufficient seeds of the respective crops (spring wheat, TRZAS; spring barley, HORVS; maize, ZEAMA) were weighed into screw top glass bottles approximately twice the volume of the seeds.
(§6) The specified safeners, formulated as wettable powder (WP) were weighed out so that the specified rates (g a.i./kg seed) would be obtained, dissolved in water (1 ml water per 10 g of seeds), and added to the seeds to produce a slurry.
(§7) The bottles were capped and then placed in an overhead shaker (set at medium speed for ca. 60 minutes) so that the seeds were evenly coated with the slurry. The bottles were uncapped and the seeds were either placed on paper and dried for an interval of 3-4 hours prior to sowing, or directly sown. Seeds were placed in sandy loam soil in pots of a diameter of 7-8 cm, and covered with soil.
(§8) Pre-emergence application of the specified herbicides was done subsequently, on two sets of plants:
(§9) a) seed treatment with safener, as described above
(§10) The herbicides were formulated as WP and was sprayed onto the soil surface as an aqueous suspension at an equivalent water application rate of 300 l/ha.
as §3, with “At intervals up to 4 weeks after application (=28” for “10 and 21”, “treatment; DAT),” for “treatment (DAT) with the herbicide,”
(§11) Values in the table below are mean values of at least 2 replicates.

[8] = system: spring wheat, TRZAS Triso; assay: as above; conditions: for HER effect + SAF / Reduction [%] / Reduction [Difference]: mefenpyr-diethyl 0.25 g a.i./kg seed
Method: as §5, §6, §7, §8, §9, §10
as §3, with “At intervals up to 4 weeks after application (=28” for “10 and 21”, “treatment; DAT),” for “treatment (DAT) with the herbicide,”
as §11

[9] = HER 48 g a.i./ha + mefenpyr-diethyl 100 g a.i./ha
[10] = HER 4 g a.i./ha + mefenpyr-diethyl 50 g a.i./ha
[11] = HER 16 g a.i./ha + mefenpyr-diethyl 100 g a.i./ha
[12] = HER 25 g a.i./ha, mefenpyr-diethyl 50 g a.i./ha 1 day before
[13] = HER 48 g a.i./ha post-emergence
[14] = HER 0.5 g a.i./ha + mefenpyr-diethyl 50 g a.i./ha
[15] = HER 2 g a.i./ha + mefenpyr-diethyl 100 g a.i./ha
[16] = HER 1 g a.i./ha + mefenpyr-diethyl 50 g a.i./ha
[17] = HER 4 g a.i./ha + mefenpyr-diethyl 100 g a.i./ha
[18] = HER 5 g a.i./ha pre-emergence, 11 DAT (Interim)
[19] = HER 5 g a.i./ha pre-emergence, 21 DAT (Final)
[20] = HER 15 g a.i./ha pre-emergence, 11 DAT (Interim)
[21] = HER 15 g a.i./ha pre-emergence, 21 DAT (Final)
[22] = herbicide alone 5 g a.i./ha pre-emergence, 11 DAT (Interim)
[23] = herbicide alone 5 g a.i./ha pre-emergence, 21 DAT (Final)
[24] = herbicide alone 15 g a.i./ha pre-emergence, 11 DAT (Interim)
[25] = herbicide alone 15 g a.i./ha pre-emergence, 21 DAT (Final)
[26] = HER 0.5 g a.i./ha post-emergence

CC1(C(=O)NC2C=CC(C(=O)OCCCl)C2)CC(c2cc(F)cc(F)c2)=NO1 (mixture of isomers) [Example 1.47]
HER effect + SAF [1, 9]: 60%
Reduction [%] [1, 9]: 29%
Reduction [Difference] [1, 9]: 25
HER effect ([1]; herbicide alone 48 g a.i./ha): 85%
HER effect + SAF [2, 10]: 10%
Reduction [%] [2, 10]: 67%
Reduction [Difference] [2, 10]: 20
HER effect + SAF [2, 11]: 20%
Reduction [%] [2, 11]: 75%
Reduction [Difference] [2, 11]: 60
HER effect ([2]; herbicide alone 4 g a.i./ha): 30%
HER effect ([2]; herbicide alone 16 g a.i./ha): 80%
HER effect + SAF [3, 12]: 40%
Reduction [%] [3, 12]: 33%
Reduction [Difference] [3, 12]: 20
HER effect ([3]; herbicide alone 25 g a.i./ha): 60%
HER effect + SAF ([4]; HER 25 g a.i./ha): 35%
Reduction [%] ([4]; HER 25 g a.i./ha): 53%
Reduction [Difference] ([4]; HER 25 g a.i./ha): 40
HER effect + SAF ([4]; HER 50 g a.i./ha): 60%
Reduction [%] ([4]; HER 50 g a.i./ha): 25%
Reduction [Difference] ([4]; HER 50 g a.i./ha): 20
HER effect ([4]; herbicide alone 25 g a.i./ha): 75%
HER effect ([4]; herbicide alone 50 g a.i./ha): 80%
HER effect + SAF [5, 13]: 20%
Reduction [%] [5, 13]: 76%
Reduction [Difference] [5, 13]: 65
HER effect ([5]; herbicide alone 48 g a.i./ha post-emergence): 85%
HER effect + SAF [%] (crop damage) ([6]; HER dose 4 g a.i./ha): 0%
Reduction [%] ([6]; HER dose 4 g a.i./ha): 100%
Reduction [Difference] ([6]; HER dose 4 g a.i./ha): 30
HER effect [%] (crop damage, herbicide without safener) ([6]; HER dose 4 g a.i./ha): 30%
HER effect + SAF [%] (crop damage) ([6]; HER dose 16 g a.i./ha): 10%
Reduction [%] ([6]; HER dose 16 g a.i./ha): 88%
Reduction [Difference] ([6]; HER dose 16 g a.i./ha): 70
HER effect [%] (crop damage, herbicide without safener) ([6]; HER dose 16 g a.i./ha): 80%

C=CC1(C(=O)NC2COC(C(=O)OC)C2)CC(c2cc(F)cc(F)c2)=NO1 (mixture of isomers) [Example 1.68]
HER effect + SAF [1, 14]: 0%
Reduction [%] [1, 14]: 100%
Reduction [Difference] [1, 14]: 30
HER effect + SAF [1, 15]: 10%
Reduction [%] [1, 15]: 75%
Reduction [Difference] [1, 15]: 30
HER effect ([1]; herbicide alone 0.5 g a.i./ha): 30%
HER effect ([1]; herbicide alone 2 g a.i./ha): 40%
HER effect + SAF [2, 16]: 30%
Reduction [%] [2, 16]: 63%
Reduction [Difference] [2, 16]: 50
HER effect + SAF [2, 17]: 60%
Reduction [%] [2, 17]: 29%
Reduction [Difference] [2, 17]: 25
HER effect ([2]; herbicide alone 1 g a.i./ha): 80%
HER effect ([2]; herbicide alone 4 g a.i./ha): 85%
HER effect + SAF [7, 18]: 5%
Reduction [%] [7, 18]: 80%
Reduction [Difference] [7, 18]: 20
HER effect + SAF [7, 19]: 5%
Reduction [%] [7, 19]: 83%
Reduction [Difference] [7, 19]: 25
HER effect + SAF [7, 20]: 0%
Reduction [%] [7, 20]: 100%
Reduction [Difference] [7, 20]: 65
HER effect + SAF [7, 21]: 60%
Reduction [%] [7, 21]: 25%
Reduction [Difference] [7, 21]: 20
HER effect [7, 22]: 25%
HER effect [7, 23]: 30%
HER effect [7, 24]: 65%
HER effect [7, 25]: 80%
HER effect + SAF [8, 18]: 15%
Reduction [%] [8, 18]: 67%
Reduction [Difference] [8, 18]: 30
HER effect + SAF [8, 19]: 5%
Reduction [%] [8, 19]: 89%
Reduction [Difference] [8, 19]: 40
HER effect + SAF [8, 20]: 30%
Reduction [%] [8, 20]: 63%
Reduction [Difference] [8, 20]: 50
HER effect + SAF [8, 21]: 30%
Reduction [%] [8, 21]: 65%
Reduction [Difference] [8, 21]: 55
HER effect [8, 22]: 45%
HER effect [8, 23]: 45%
HER effect [8, 24]: 80%
HER effect [8, 25]: 85%
HER effect + SAF [5, 26]: 0%
Reduction [%] [5, 26]: 100%
Reduction [Difference] [5, 26]: 30
HER effect + SAF ([5]; HER 2 g a.i./ha post-emergence): 0%
Reduction [%] ([5]; HER 2 g a.i./ha post-emergence): 100%
Reduction [Difference] ([5]; HER 2 g a.i./ha post-emergence): 40
HER effect ([5]; herbicide alone 0.5 g a.i./ha post-emergence): 30%
HER effect ([5]; herbicide alone 2 g a.i./ha post-emergence): 40%
HER effect + SAF [%] (crop damage) ([6]; HER dose 1 g a.i./ha): 20%
Reduction [%] ([6]; HER dose 1 g a.i./ha): 75%
Reduction [Difference] ([6]; HER dose 1 g a.i./ha): 60
HER effect [%] (crop damage, herbicide without safener) ([6]; HER dose 1 g a.i./ha): 80%
HER effect + SAF [%] (crop damage) ([6]; HER dose 4 g a.i./ha): 30%
Reduction [%] ([6]; HER dose 4 g a.i./ha): 65%
Reduction [Difference] ([6]; HER dose 4 g a.i./ha): 55
HER effect [%] (crop damage, herbicide without safener) ([6]; HER dose 4 g a.i./ha): 85%

From patent publication US20230200390A1, “SELECTIVE HERBICIDES BASED ON SUBSTITUTED ISOXAZOLIN CARBOXAMIDES AND MEFENPYR-DIETHYL” (BAYER AKTIENGESELLSCHAFT, priority 2020, published 2023)
